Source: patent publication US8242170B2, “Use of cis-epoxyeicosatrienoic acids and inhibitors of soluble epoxide hydrolase to reduce cardiomyopathy” (The Regents of the University of California, priority 2005, dated 2012)
Entries after “also recorded” stand apart in the source; their conditions may differ.

Experiments:
Metabolic stability = assay type: in vitro ADME
[1] = biological target: T1, soluble epoxide hydrolase (sEH) (Homo sapiens, UniProt P34913); test: Inhibition of soluble epoxide hydrolase activity; assay type: biochemical
T1 sequence (P34913 with tags, fused parts or gaps A5G/DEL257-257/G258W): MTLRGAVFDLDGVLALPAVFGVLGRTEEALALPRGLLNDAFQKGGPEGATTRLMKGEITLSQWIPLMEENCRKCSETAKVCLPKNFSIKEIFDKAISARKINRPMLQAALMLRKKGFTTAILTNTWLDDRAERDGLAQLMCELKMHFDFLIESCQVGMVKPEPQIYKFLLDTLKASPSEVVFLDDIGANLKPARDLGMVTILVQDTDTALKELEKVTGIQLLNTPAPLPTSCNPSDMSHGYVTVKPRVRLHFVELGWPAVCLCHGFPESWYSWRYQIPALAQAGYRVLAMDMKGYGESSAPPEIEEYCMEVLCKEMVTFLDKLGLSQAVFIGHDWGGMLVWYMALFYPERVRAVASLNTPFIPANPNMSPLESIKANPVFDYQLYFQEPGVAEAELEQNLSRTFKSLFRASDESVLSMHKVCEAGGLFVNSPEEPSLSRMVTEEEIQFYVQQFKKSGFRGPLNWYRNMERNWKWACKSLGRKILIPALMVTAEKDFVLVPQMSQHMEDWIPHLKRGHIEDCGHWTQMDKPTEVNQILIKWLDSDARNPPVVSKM
Text: Any of a number of standard assays for determining epoxide hydrolase activity can be used to determine inhibition of sEH. For example, suitable assays are described in Gill, et al., Anal Biochem 131, 273-282 (1983); and Borhan, et al., Analytical Biochemistry 231, 188-200 (1995)). Suitable in vitro assays are described in Zeldin et al., J. Biol. Chem. 268:6402-6407 (1993). Suitable in vivo assays are described in Zeldin et al., Arch Biochem Biophys 330:87-96 (1996). […]
The enzyme also can be detected based on the binding of specific ligands to the catalytic site which either immobilize the enzyme or label it with a probe such as dansyl, fluoracein, luciferase, green fluorescent protein or other reagent. […] The enzyme also can be detected based on the generation of fluorescent products following the hydrolysis of the epoxide. […]

[2] = tested on: TAC-mice (thoracic aortic constriction, cardiac hypertrophy); test: Thoracic aortic constriction (TAC) mouse model of pressure overload cardiac hypertrophy; assay type: in vivo, mouse (C57B1/6J); conditions: for Hypertrophic response, H&E-stained histologic sections (FIG. 2): 3 weeks, compound 950 15 mg/kg twice a day, AUDA-BE 3 mg/kg twice a day, in drinking water; for Cardiac hypertrophy after drug treatment: sEH inhibitor in drinking water for three weeks
Method: Ascending aortic constriction was performed in 8-week-old male C57B1/6J mice (Charles River, Wilmington, Mass.). Animals were anesthetized with intraperitoneal ketamine 50 mg/kg and xylazine 2.5 mg/kg, and aortic constriction was created via a left thoracotomy by placing a ligature securely around the ascending aorta and a 26-gauge needle and then removing the needle. Immediately after the surgery, animals with ascending aortic stenosis were randomized and placed in one of the following regimens for three weeks: (a) compound 950 in drinking water ([…]), (b) AUDA-BE in drinking water, or (c) no drug. Age-matched animals served as controls.
To assess systolic function, echocardiograms were performed using M-mode and two-dimensional measurements as described previously. The measurements represented the average of six selected cardiac cycles from at least two separate scans performed in random-blind fashion with papillary muscles used as a point of reference for consistency in level of scan. End diastole was defined as the maximal left ventricle diastolic dimension and end systole was defined as the peak of posterior wall motion. Fractional shortening (FS), a surrogate of systolic function, was calculated from left ventricle dimensions as follows: FS=((EDD−ESD)/EDD)×100%.
To compare myocyte size, hearts were removed and rinsed for 1 minute in 0.1 mol/L phosphate buffered saline (PBS) with 50 mmol/L KCl (pH 7.2) and subsequently fixed overnight at 4° C. in 4% paraformaldehyde prepared in PBS. Vibratome sections (100 μm) from similar areas of the left ventricles were stained in a 1:20 dilution of rhodamine phalloidin (Molecular Probes, Inc., Eugene, Oreg.) and imaged with a BioRad MRC1000 confocal scanning laser microscope (BioRad Laboratories, Hercules, Calif.). A minimum of 5 optical sections was collected from the free wall of the left ventricle of each animal with a Zeiss 60× NA 1.4 lens. All images used for myocyte measurements were collected with identical laser, iris, gain, and black level operating parameters. Myocyte widths were measured parallel to the direction of the sarcomeres from unbranched regions of the myocytes near an intercalated disk with the length/profile function. Data sets were then compared using Student t tests.
Thoracic aortic constrictions (“TACs”) were created in 8-week-old male C57B1/6J mice as described in Example 1, above, resulting in a chronic pressure overload induced cardiac hypertrophy. TAC-mice were randomized to receive either no therapy or one of two exemplar sEH inhibitors (compound 950 and AUDA-BE) in drinking water for a period of three weeks. […] This effect is independent of the anti-hypertensive action of the drugs, since the hearts were constantly exposed to the high afterload created by the aortic constriction.
All the mice were sacrificed at three weeks after the TAC was created.
FIG. 2 further compares hematoxylin and eosin (“H&E”)-stained histologic section of a sham-operated heart and of TAC-mouse hearts with or without sEHI treatment. […] We further assessed the chamber size and wall thickness in untreated TAC-mice compared to treated TAC-mice using echocardiography.

[3] = tested on: neonatal mouse cardiac myocytes; test: Angiotensin II induced hypertrophy of primary neonatal mouse cardiac myocytes in culture; assay type: cell-based, mouse (C57B1/6J); conditions: 48 hours of treatment with ANG II
Method: Single cardiac myocytes were isolated from 5 day old neonatal mice (C57B1/6J) as previously described (Nuss & Marban, J. Physiol. 479 (Pt 2):265-79 (1994); Chiamvimonvat et al., J. Physiol. 483 (Pt 2):307-18 (1995)). Mice were anesthetized with pentobarbital (40 mg/kg) intraperitoneally. Animals were sacrificed by decapitation and hearts excised under sterile conditions into a filter sterilized (0.2 μm) nominally Ca^2+-, bicarbonate-free Hanks HEPES-buffered solution, pH 7.4 at room temperature. Atrial and great vessel tissues were carefully removed. The ventricles were washed and minced in this Ca^2+-free buffered solution containing trypsin (Difco®, BD Diagnostic Systems, Sparks Md., 1.5 mg/ml), DNase (1 ml/100 ml of the enzyme solution). The tissues were then incubated with 2 ml of the enzyme solution and stirred continuously at 37° C. The supernatant was removed and the enzyme solution replaced at five-minute intervals. The supernatant obtained after the first 15 minutes was discarded. Thereafter, the supernatant was diluted 1:1 in bovine calf serum. The cells were centrifuged at 2000 r.p.m. for three minutes and resuspended in MEM culture medium (Invitrogen, Carlsbad, Calif.) containing 5% bovine calf serum (Invitrogen), penicillin G (sodium) and vitamin B12. The viability of the cells was assessed using the trypan blue dye exclusion test. […]

[4] = tested on: TAC-mice (thoracic aortic constriction, cardiac hypertrophy); test: Thoracic aortic constriction (TAC) mouse model of pressure overload cardiac hypertrophy; assay type: in vivo, mouse (C57B1/6J); conditions: after 3 and 6 weeks of follow up

| Compound | Metabolic stability (Metabolic stability) | Activity as inhibitor of sEH [1] | Hypertrophic response, H&E-stained histologic sections (FIG. 2) [2] | Cardiac hypertrophy after drug treatment [2] | Development of cardiac hypertrophy and failure, M-mode echocardiography (FIG. 3) ([2]; after three weeks of treatment) | Cardiac hypertrophy, whole hearts (FIG. 1) ([2]; drinking water three weeks, sacrificed at three weeks after TAC) | Loss of organization of the myofibrils (myofibril disarray), anti-alpha actinin immunofluorescence (FIG. 4) ([2]; left ventricle sections, three weeks) | Cell size of neonatal cardiac myocytes, ANG II plus compound versus ANG II alone [3] | Development of cardiac hypertrophy and failure, echocardiography [4] |
| --- | --- | --- | --- | --- | --- | --- | --- | --- | --- |
| CCCCCCCCCCCCNC(=O)NC12CC3CC(CC(C3)C1)C2 [ADU, N-Adamantyl-N′-dodecyl urea] | metabolically stable | particularly high activity on sEH | – | – | – | – | – | – | – |
| CCCCOC(=O)CCCCCCCCCCCNC(=O)NC12CC3CC(CC(C3)C1)C2 [AUDA-BE, 12-(3-Adamantan-1-yl-ureido)dodecanoic acid butyl ester] | – | – | prevents the development of cardiac hypertrophy; also recorded: completely prevented | almost complete resolution of cardiac hypertrophy | – | – | – | – | – |
| CCOCCOCCOCCCCCNC(=O)NC12CC3CC(CC(C3)C1)C2 [compound 950, Adamantan-1-yl-3-{5-[2-(2-ethoxyethoxy)ethoxy]pentyl}urea] | – | – | prevents the development of cardiac hypertrophy; also recorded: completely prevented | almost complete resolution of cardiac hypertrophy | completely prevented the development of cardiac hypertrophy and failure | no evidence of cardiac hypertrophy | effects were prevented | significant differences in the cell size | can prevent the development of cardiac hypertrophy and failure |
